In ChEMBL document CHEMBL1201862, “PubChem BioAssay data set” (2004):
Structures can show the parent of a compound that is named as a salt. Calls of active or inactive are those of the source.

Columns and labels:
[1] = growth suppression of beta-catenin-knockout colon cells, dose response, cell-based, HCT116, human colon tumor (AID 1045); format: functional;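 further: HCT116 colon tumor cells with beta catenin knocked out; cells exposed to compound for 60 hours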
[2] = molecular target: T1, Calpain-2 catalytic subunit (Sus scrofa, UniProt P43367); test: pig calpain II inhibitor potency, dose response, biochemical, fluorogenic peptide substrate (AID 1420); format: functional
T1 sequence (P43367 whole entry): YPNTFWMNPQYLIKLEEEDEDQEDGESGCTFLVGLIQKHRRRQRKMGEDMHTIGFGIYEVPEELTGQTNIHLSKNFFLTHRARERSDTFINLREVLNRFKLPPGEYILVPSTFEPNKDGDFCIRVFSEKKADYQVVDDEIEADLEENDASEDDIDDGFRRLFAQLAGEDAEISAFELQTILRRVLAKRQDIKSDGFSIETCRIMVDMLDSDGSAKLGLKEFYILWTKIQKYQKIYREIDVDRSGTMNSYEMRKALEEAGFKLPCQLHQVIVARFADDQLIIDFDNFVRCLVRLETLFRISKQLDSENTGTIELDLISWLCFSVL

BJ [3] = test: cytotoxicity toward BJ-TERT fibroblasts, dose response, cell-based, RAS-independent, luminescence (AID 1933); format: functional; conditions: Homo sapiens
[4] = control 3'UTR Renilla luciferase suppression, dose response, counter-screen for Shn3 inhibitor project, cell-based, Clone20-Shn3RL, cherry-picked (AID 624133); format: functional
[5] = microbe, parasite or virus in culture; format: functional; conditions: Mycobacterium tuberculosis
[6] = Shn3 3'UTR reporter inhibitors, dose response, cell-based, Clone20 osteoblasts, firefly luciferase, cherry-picked (AID 624132); format: functional;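 further: firefly luciferase luminescence from reporter carrying the Shn3 3'UTR in osteoblasts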
[7] = molecular target: Voltage-dependent T-type calcium channel subunit alpha-1H (Homo sapiens, UniProt O95180); format: functional;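 further: channel activity triggered by adding a high calcium stimulation buffer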
[8] = growth suppression of PTEN-null colon cells, dose response, cell-based, HCT116 PTEN knockout (AID 1047); format: functional;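 further: HCT116 colon tumor cells with PTEN knocked out; cells exposed to compound for 60 hours before readout; potency for loss of cell viability measured by luminescence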
[9] = cytotoxicity toward DRD oncogenic fibroblasts, dose response, cell-based, non-viral oncogenic, luminescence (AID 1934); format: functional; conditions: Homo sapiens
[10] = HepG2 cell cytotoxicity, dose response, cytotoxicity control for Shn3 inhibitor project, CellTiter-Glo, cherry-picked (AID 624134); format: functional, cell-based
[11] = molecular target: Sphingosine 1-phosphate receptor 2 (Homo sapiens, UniProt O95136); test: Dose Response Cell Based Assay for Antagonists of the S1P2 Receptor. [Related pubchem assays: 856, 736 ]; format: functional
[12] = cytotoxicity in HEK-293T NF-kB-Luc cells, dose response, cytotoxicity control for B/T-cell NF-kB inhibitor project, cell-based, uHTS hits (AID 489019); format: functional;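 further: IC50 reflects cytotoxicity as loss of cell viability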
BJ [13] = test: cells; format: functional, cell-based; conditions: Homo sapiens
Jurkat = test: antigen receptor-induced NF-kB inhibitors, dose response, Jurkat, luciferase reporter, luminescence, B- and T-cell (AID 489004); format: functional, cell-based; conditions: Homo sapiens;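 further: NF-kB luciferase reporter Jurkat cells stimulated with PMA plus ionomycin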
BJ [14] = test: cytotoxicity toward BJ-TERT-LT-ST fibroblasts, dose response, cell-based, RAS-independent, luminescence (AID 1935); format: functional; conditions: Homo sapiens;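 further: BJ fibroblasts immortalized with TERT plus LT and ST oncogenes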
INS1 = test: beta cell apoptosis inhibitors, cytokine rescue, dose response, luminescence, retest (AID 449756); format: functional, cell-based; conditions: Rattus norvegicus;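 further: cell death triggered by IL-1 beta plus TNF-alpha plus IFN-gamma mixture; protective hits raise ATP signal compared with cytokine alone wells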
[15] = CellTiter-Glo luminescent dose response of DLD-1 viability loss (AID 1117352); format: functional
[16] = RKO cell viability reduction, dose response, CellTiter-Glo luminescence (AID 1117322); format: functional
[17] = Concentration-dependent survival of SW480 colon cancer line, luminescence detection with CellTiter-Glo, half-maximal inhibitory concentration (AID 1117338); format: functional
[18] = cytotoxicity toward HT-29 cells – cell-based, CellTiter-Glo luminescence, IC50, dose response (AID 1117330); format: functional
[19] = cytotoxicity toward HCT116 cells – cell-based, CellTiter-Glo luminescence, IC50, dose response (AID 1117332); format: functional; conditions: HCT-116
[20] = cytotoxicity toward Colo320 cells – cell-based, CellTiter-Glo luminescence, IC50, dose response (AID 1117334); format: functional; conditions: COLO 320
Leucine aminopeptidase = molecular target: T2, Leucine aminopeptidase (Plasmodium falciparum 3D7, UniProt Q8IL11); test: P. falciparum M17LAP inhibitors, primary screen, biochemical, fluorogenic H-Leu-NHMec substrate, 1536-well (AID 1619); format: functional
T2 sequence (Q8IL11 whole entry): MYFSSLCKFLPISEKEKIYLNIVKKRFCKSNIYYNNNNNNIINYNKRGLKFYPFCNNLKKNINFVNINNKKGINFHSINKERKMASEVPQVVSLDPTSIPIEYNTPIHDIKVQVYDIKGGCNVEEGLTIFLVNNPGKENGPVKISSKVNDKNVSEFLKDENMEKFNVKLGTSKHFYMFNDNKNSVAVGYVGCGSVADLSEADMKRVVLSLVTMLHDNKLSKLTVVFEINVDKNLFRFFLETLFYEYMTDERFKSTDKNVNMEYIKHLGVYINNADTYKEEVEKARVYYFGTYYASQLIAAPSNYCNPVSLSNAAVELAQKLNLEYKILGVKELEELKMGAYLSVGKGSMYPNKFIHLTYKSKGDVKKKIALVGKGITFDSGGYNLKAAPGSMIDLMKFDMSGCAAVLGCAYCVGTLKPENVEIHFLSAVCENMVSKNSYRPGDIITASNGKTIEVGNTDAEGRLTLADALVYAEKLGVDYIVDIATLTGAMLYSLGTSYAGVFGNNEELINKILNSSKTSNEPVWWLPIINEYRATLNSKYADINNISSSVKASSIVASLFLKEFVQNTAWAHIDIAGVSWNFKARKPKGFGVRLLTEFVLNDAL

Aspartyl aminopeptidase = molecular target: T3, Aspartyl aminopeptidase (Plasmodium falciparum 3D7, UniProt Q8I2J3); test: Counterscreen for inhibitors of M1 and M17 aminopeptidases: QFRET-based biochemical high throughput dose response assay for inhibitors of the Plasmodium falciparum M18 Aspartyl Aminopeptidase (PFM18AAP). [Related PubChem assays: 1619 (Screening assay (M17LAP inhibitors).), 1445 (Screening assay (M1AAP inhibitors).)]
T3 sequence (Q8I2J3 whole entry): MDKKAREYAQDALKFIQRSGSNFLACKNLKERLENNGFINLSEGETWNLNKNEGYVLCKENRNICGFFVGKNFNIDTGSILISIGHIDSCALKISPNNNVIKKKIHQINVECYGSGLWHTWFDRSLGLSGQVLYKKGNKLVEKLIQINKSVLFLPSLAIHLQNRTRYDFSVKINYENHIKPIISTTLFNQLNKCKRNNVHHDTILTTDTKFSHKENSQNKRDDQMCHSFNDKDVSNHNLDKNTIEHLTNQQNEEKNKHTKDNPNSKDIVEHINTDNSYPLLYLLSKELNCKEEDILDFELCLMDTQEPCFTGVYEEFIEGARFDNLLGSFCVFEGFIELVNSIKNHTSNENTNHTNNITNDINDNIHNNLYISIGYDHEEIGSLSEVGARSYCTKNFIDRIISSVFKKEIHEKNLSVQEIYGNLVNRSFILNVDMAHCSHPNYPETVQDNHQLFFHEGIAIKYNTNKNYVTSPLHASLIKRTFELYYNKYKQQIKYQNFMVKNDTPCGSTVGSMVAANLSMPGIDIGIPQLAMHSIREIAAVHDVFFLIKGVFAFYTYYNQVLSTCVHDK

Procathepsin L = Procathepsin L (Homo sapiens, UniProt P07711); test: cathepsin L inhibitors, dose response, counter-screen for M1/M17 aminopeptidase inhibitor project, biochemical, QFRET, 1536-well (AID 2214)
HT-1080 = test: cytotoxicity in HT1080 fibrosarcoma cells, cell-based, fluorescence readout (AID 620); format: functional; conditions: Homo sapiens
[21] = Luminescence Cell-Based Dose Retest to Confirm Inhibitors of Cancer Stem Cells. [Related pubchem assays (depositor defined):AID2717, AID2721]; format: functional; conditions: Homo sapiens
[22] = THP-1 cell cytotoxicity, dose response, cytotoxicity control for Vif-APOBEC3G degradation inhibitor project, THP-1 cells (AID 1117359); format: functional; conditions: Human immunodeficiency virus 1, THP-1
[23] = molecular target: T4, Mannose-6-phosphate isomerase (Homo sapiens, UniProt P34949); test: inhibitors of human PMI, primary screen, biochemical, fluorescence intensity, coupled assay (AID 1209)
T4 sequence (P34949 whole entry): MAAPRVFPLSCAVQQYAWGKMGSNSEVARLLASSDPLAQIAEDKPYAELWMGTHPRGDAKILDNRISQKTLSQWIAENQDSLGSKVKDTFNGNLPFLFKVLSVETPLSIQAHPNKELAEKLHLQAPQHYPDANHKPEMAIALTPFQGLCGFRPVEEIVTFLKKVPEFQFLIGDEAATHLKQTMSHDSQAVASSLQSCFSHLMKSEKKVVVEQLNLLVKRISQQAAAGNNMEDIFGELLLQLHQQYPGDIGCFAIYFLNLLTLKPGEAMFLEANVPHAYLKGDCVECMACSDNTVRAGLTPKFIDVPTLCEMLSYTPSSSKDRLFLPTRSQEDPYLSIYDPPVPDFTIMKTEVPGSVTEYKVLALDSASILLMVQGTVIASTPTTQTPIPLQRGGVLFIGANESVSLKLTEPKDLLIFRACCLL

Sequence of Procathepsin L (P07711 whole entry): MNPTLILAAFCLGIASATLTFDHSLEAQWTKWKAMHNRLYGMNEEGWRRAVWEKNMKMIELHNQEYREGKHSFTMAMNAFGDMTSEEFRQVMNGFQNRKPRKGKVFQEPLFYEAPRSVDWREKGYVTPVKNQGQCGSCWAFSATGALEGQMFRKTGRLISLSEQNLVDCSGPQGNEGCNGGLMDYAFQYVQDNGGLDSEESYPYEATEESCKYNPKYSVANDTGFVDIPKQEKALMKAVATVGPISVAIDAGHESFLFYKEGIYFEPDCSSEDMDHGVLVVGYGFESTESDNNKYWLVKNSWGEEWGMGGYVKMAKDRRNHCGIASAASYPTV
Sequence of Sphingosine 1-phosphate receptor 2 (O95136 whole entry): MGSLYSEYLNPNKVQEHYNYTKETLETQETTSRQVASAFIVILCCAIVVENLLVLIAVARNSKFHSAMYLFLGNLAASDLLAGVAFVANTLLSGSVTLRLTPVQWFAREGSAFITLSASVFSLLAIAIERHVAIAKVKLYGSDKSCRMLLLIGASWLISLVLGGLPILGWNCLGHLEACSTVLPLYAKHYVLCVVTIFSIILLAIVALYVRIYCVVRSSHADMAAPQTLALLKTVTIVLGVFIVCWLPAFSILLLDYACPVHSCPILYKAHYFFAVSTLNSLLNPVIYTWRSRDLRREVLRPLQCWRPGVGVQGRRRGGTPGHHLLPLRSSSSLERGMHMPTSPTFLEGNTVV
Sequence of Voltage-dependent T-type calcium channel subunit alpha-1H (O95180 whole entry): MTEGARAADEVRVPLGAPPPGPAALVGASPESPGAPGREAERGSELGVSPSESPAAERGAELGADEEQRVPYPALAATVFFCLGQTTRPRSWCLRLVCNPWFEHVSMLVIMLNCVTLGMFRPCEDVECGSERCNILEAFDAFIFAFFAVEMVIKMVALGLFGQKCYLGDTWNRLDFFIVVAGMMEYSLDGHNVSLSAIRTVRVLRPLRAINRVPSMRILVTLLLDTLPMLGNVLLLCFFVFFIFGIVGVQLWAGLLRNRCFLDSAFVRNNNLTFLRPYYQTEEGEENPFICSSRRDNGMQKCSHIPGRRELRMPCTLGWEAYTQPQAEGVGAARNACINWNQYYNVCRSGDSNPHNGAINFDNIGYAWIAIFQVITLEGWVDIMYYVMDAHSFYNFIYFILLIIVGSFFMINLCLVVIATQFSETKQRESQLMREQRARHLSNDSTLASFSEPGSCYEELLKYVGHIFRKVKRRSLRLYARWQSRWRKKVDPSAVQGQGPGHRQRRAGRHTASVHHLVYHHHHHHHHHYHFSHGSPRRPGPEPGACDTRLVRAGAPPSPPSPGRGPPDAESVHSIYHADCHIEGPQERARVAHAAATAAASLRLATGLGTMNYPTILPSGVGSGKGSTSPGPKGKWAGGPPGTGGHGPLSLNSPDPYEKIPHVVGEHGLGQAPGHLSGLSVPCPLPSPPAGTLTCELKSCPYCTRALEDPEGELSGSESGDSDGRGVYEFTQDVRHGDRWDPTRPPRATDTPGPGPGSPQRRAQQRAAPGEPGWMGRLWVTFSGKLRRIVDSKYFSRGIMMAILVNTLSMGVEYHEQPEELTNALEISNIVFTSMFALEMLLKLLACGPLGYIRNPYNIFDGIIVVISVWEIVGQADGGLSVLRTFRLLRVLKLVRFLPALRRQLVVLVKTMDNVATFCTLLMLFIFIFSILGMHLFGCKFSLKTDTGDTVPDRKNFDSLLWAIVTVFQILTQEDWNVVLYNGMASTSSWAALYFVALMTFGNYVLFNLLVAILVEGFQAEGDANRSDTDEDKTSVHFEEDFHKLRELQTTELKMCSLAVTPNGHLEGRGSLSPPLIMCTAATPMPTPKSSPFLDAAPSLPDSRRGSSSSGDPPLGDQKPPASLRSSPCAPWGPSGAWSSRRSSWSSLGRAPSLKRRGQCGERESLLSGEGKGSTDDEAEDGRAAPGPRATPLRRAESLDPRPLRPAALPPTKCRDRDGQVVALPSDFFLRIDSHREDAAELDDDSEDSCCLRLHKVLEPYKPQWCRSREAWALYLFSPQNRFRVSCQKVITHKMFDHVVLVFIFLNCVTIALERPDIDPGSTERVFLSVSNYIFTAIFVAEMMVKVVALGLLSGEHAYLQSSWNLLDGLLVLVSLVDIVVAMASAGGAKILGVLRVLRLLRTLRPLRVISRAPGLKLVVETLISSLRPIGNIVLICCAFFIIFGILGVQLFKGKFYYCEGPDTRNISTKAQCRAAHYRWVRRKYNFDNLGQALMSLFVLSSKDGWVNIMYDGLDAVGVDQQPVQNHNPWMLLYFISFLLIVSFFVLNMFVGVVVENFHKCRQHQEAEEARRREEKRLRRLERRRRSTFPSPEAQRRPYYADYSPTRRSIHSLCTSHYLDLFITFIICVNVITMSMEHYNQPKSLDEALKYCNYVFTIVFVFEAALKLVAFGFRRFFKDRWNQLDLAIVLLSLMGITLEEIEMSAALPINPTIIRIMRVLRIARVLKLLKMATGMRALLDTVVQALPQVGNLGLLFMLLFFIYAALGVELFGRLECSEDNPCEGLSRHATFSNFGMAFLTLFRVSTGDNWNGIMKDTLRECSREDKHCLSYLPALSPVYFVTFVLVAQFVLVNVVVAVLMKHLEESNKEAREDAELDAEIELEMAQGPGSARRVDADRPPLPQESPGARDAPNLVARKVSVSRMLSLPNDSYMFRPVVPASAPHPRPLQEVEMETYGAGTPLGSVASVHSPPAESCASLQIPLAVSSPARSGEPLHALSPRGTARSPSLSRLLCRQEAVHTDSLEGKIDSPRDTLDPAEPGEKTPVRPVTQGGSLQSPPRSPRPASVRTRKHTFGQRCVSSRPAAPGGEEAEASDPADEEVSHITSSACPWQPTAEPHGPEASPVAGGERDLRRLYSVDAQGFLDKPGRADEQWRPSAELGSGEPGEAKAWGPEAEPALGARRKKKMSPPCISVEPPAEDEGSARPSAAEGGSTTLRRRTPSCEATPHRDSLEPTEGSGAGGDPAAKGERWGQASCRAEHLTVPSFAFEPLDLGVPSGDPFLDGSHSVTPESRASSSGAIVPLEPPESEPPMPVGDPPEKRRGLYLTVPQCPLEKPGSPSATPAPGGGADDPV

With `N#CC(c1cccc(Cl)c1)c1ccc2c(C(F)(F)F)cc(C(F)(F)F)nc2n1` (stereo not drawn) the EC50 [1] was 0.267 µM (active), the IC50 [2] was 6.77 µM (not active) and the EC50 (BJ [3]) was 2.77 µM (active). The AC50 [4] was 0.54 µM (active), the CC50 [5] was < 0.16 µM (active) and the AC50 [6] was 0.689 µM (active). For the same compound, the EC50 [7] was 3.85 µM (active), the EC50 [8] was 0.235 µM (active) and the EC50 [9] was 3.04 µM (active). For the same compound, the AC50 [10] was 0.805 µM (active), the IC50 [11] was 0.922 µM (active) and the IC50 [12] was > 80 µM (inactive). The EC50 (BJ [13]) was 3.68 µM (inconclusive), the IC50 (Jurkat) was 34.5 µM (inactive) and the EC50 (BJ [14]) was 6.56 µM (active). For the same compound, the AC50 (INS1) was 0.881 µM (active).
For `CC(C)(C)NCC(O)c1cc(O)cc(O)c1` (stereo not drawn) [TERBUTALINE SULFATE], the IC50 [15] was > 20 µM (inactive), the IC50 [16] was > 20 µM (inactive) and the IC50 [17] was > 20 µM (inactive). The IC50 [18] was > 20 µM (inactive), the IC50 [19] was > 20 µM (inactive) and the IC50 [20] was > 20 µM (inactive).
With `Cc1ccc(-n2c(C)cc(C(=O)COC(=O)c3ccc[nH]c3=O)c2C)cc1C` the IC50 (Leucine aminopeptidase) was 1.45 µM (active), the IC50 (Aspartyl aminopeptidase) was > 73.5 µM (not active) and the IC50 (Procathepsin L) was > 59.6 µM (not active).
In the case of `O=C(NC1=NC2CCCCC2N1)c1ccccc1` (stereo not drawn), the EC50 (HT-1080) is reported as > 50 µM (not active).
For `Cc1ccc(/C=N/c2ccccc2C(N)=O)s1`, the AC50 [21] was 2.44 µM (active) and the CC50 [22] was 2.54 µM (active).
With `Cc1n[nH]c(C)c1N1C(=O)c2cccc3c(Br)ccc(c23)C1=O` the IC50 [11] was > 75.5 µM (not active).
For `CC1=C(C)CC(C(=O)Nc2cccc([N+](=O)[O-])c2)C(C(=O)O)C1` (stereo not drawn), the IC50 (Leucine aminopeptidase) was 6.42 µM (active), the IC50 (Aspartyl aminopeptidase) was > 73.5 µM (not active) and the IC50 (Procathepsin L) was > 59.6 µM (not active).
With `Cn1c(=O)c([N+](=O)[O-])c(Oc2ccccc2)c2ccccc21` the IC50 [23] was > 50 µM (not active).
